Where two headings read alike, the source gives them in different places.
How the values were obtained:
[1] = target: T1, recombinant SjTGR (Schistosoma japonicum, UniProt B5THG7); assay: Inhibition of TrxR activity of recombinant SjTGR (DTNB assay); format: biochemical; conditions: 50 nM SjTGR, 1 mM NADPH, 15 min preincubation, DTNB reduction
T1 sequence (B5THG7 1-596): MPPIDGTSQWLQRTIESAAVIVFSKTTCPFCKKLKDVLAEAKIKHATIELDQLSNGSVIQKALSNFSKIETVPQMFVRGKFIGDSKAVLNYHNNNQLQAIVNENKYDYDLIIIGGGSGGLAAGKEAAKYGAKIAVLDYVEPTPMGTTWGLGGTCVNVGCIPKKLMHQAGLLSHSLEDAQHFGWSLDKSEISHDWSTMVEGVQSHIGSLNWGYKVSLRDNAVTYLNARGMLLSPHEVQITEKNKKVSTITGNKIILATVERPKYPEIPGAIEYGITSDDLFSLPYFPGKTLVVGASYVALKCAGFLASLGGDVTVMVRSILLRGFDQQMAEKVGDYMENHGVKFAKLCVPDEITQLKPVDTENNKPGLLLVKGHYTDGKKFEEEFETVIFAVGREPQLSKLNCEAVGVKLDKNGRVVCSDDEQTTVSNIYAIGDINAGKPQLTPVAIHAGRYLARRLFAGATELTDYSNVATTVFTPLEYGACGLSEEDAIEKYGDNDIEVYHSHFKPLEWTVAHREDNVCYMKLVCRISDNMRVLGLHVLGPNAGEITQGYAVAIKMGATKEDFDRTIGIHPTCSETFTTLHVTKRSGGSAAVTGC
Protocol: The purified recombinant SjTGR proteins were produced according to the method described by Song et al.. The inhibition of TrxR activity by the recombinant SjTGR was performed as reported by Rai et al.. Briefly, 50 nM SjTGR and 1 mM NADPH were incubated with different concentrations of oxadiazole-2-oxides (2, 4, 6, 10, 20 μM) for 15 min at room temperature. Then, potassium phosphate buffer (pH 7.4) containing 10 mM EDTA, 100 μM NADPH, and 3 mM DTNB was added to start the reaction. The increase of absorbance at 412 nm was monitored during the first 2 min. All assays were done in triplicate.
50 nM SjTGR and 1 mM NADPH were incubated with different concentrations of oxadiazole-2-oxides (2, 4, 6, 10, 20 μM) for 15 min at room temperature. Then, potassium phosphate buffer (pH 7.4) containing 10 mM EDTA, 100 μM NADPH, 3 mM DTNB was added to start the reaction. The increase in absorbance at 412 nm was monitored during the first 2 min. All assays were done in triplicate. Results shown are the mean ± SD (n = 3)

[2] = test system: adult S. japonicum; assay: microbe, parasite or virus in culture; format: cell-based; conditions: for mortality at 25 µM / killing at 25 µM / killing at 50 µM / killing at 100 µM: Schistosoma japonicum; for mortality at 25 µM: read-out: Mortality of adult worms; for Killing activity 24hr / Killing activity 48hr / Killing activity 72hr: 10 μM
Description: ICR mice (20–22 g), were obtained from the Shanghai Sub-Center of Experimental Animals, Chinese Academy of Sciences. They were maintained at the Department of Experimental Animals, Jiangsu Institute of Parasitic Diseases. To infect each mouse, its abdominal skin was exposed to 50 S. japonica cercariae. All of the mice were executed to collect S. japonica adult worms, through portal vein perfusion, 35 days post-infection. The adult S. japonica collected were washed with RPMI 1640 medium and then kept in RPMI 1640 medium (pH 7.5) with HEPES 20 mM, penicillin (100 IU/mL), streptomycin ([…]) and 10 % fetal bovine serum. Then, two pairs of adult worms were transferred into each well of a 24-well culture plate, with 2 mL of the same medium. The worms were cultured at 37 °C in a humid atmosphere with 5 % CO2.
Adult worms were cultured in a 24-well culture plate for 30–60 min at 37 °C, in a humid atmosphere with 5 % CO2. Then, oxadiazole-2-oxides at different concentrations (10, 25, 50, 100 μM) were added. Equal volumes of RPMI 1640 or DMSO were applied as negative controls, while PZQ was applied as a positive control. The adult worm mobility and parasite survival rates were monitored using an inverted phase contrast microscope, at 24, 48 and 72 h. Parasite death was defined as there being no motor activity during 2 min of continuous observation, and morphological and tegumental alterations. All assays were repeated three times.
^b Data collected by visual examination of worm movement and shape; n.e. […] The data presented are the average of three independent experiments.

[3] = test system: juvenile S. japonicum; assay: microbe, parasite or virus in culture; format: cell-based; conditions: for mortality at 50 µM / killing at 2 µM / killing at 5 µM / killing at 50 µM: Schistosoma japonicum; for mortality at 50 µM: read-out: Mortality of juvenile worms; for Killing activity 48hr / Killing activity 72hr / Killing activity 24hr: 10 μM
Protocol: Infected Oncomelania hupensis, provided by the Department of Snail Biology, Jiangsu Institute of Parasitic Diseases, were incubated at 25–28 °C, under illumination, for 2 h to hatch S. japonicum cercariae. The cercariae were collected from the water surface with clean cover glass and placed into a centrifuge tube using pre cooled RPMI 1640. Centrifugation was performed for 1 min at 1500 rpm, and then the steps above were repeated. After centrifugation, the supernatant solution was removed. The cercariae at the bottom were washed twice and resuspended with RPMI 1640. Approximately 20–30 cercariae (1 mL of the resuspension medium) were added to one well in a 24-well culture plate. They were incubated overnight at 37 °C with 5 % CO2. The survival rates and number of tails shed were observed under an inverted microscope. Cercariae that had shed their tails were used as juvenile S. japonicum.
20–30 juvenile worms were transferred into each well of a 24-well culture plate, containing 2 mL RPMI 1640 medium, 20 mM HEPES, 100 IU/mL penicillin, […] streptomycin and 10 % fetal bovine serum. Then, oxadiazole-2-oxides (2, 5, 10, and 50 μM), diluted with the RPMI 1640 medium, were added to their allocated wells. The worms in the negative control wells were treated with equal volumes of RPMI 1640 or DMSO and worms treated with AS were observed as positive controls. The juvenile worms’ survival rates were observed under an inverted phase contrast microscope (Leica, Wetzlar, Germany) at 24, 48 and 72 h. Parasite death was defined as an unclear internal structure of the juvenile worms, with incomplete tegument and contents overflowing radially, or unclear internal structure with complete tegument, but having no motor activity during 1 min of continuous observation. All assays were repeated three times.
^b Data collected by visual examination of worm movement and shape; % D = The number of worms dead / The total number of worms observed, and worms dead judged by unclear internal structure of juvenile worms with uncompleted tegument, and contents overflowing radially, or unclear internal structure with complete tegument, but having no motor activity during 1 min of continuous observation. The data presented are the average of three independent experiments.

[4] = test system: juvenile S. japonicum in mice; assay: Treatment of infected mice at juvenile worm stage; format: in vivo, Schistosoma japonicum (ICR mice); conditions: 10 mg/kg i.p. daily for 5 days from day 7 post-infection
Protocol: The abdominal skin of each mouse (ICR, female, 22–24 g) was exposed to 20 S. japonica cercariae (as described above). The mice were intraperitoneally injected with 10 mg/kg oxadiazole-2-oxides daily for 5 days, beginning either 7 or 35 days post-infection. Control mice were treated with 10 mg/kg of the carrier medium. All mice were sacrificed 42 days post-infection. The worm burden of each mouse was confirmed by counting the number of worms observed from a portal vein perfusion. The mouse livers were digested overnight with 5 % potassium hydroxyl solution at 37 °C and the eggs in the liver tissue were counted under an inverted phase contrast microscope. The worm and egg reduction rates were calculated using the following formulas: Wormreductionrate%=meannumberofadultwormspermouseincontrolgroup−meannumberofadultwormspermouseinexperimentalgroup/meannumberofadultwormspermouseincontrolgroup. Eggreductionrate%=meannumberofeggspermouseincontrolgroup−meannumberofeggspermouseinexperimentalgroup/meannumberofeggspermouseincontrolgroup.

[5] = juvenile worms, 2 μM, 24 h, read-out: Killing activity 24hr
[6] = juvenile worms, 2 μM, 48 h, read-out: Killing activity 48hr
[7] = juvenile worms, 2 μM, 72 h, read-out: Killing activity 72hr
[8] = juvenile worms, 5 μM, 24 h, read-out: Killing activity 24hr
[9] = juvenile worms, 5 μM, 48 h, read-out: Killing activity 48hr
[10] = juvenile worms, 5 μM, 72 h, read-out: Killing activity 72hr
[11] = juvenile worms, 50 μM, 24 h, read-out: Killing activity 24hr
[12] = juvenile worms, 50 μM, 48 h, read-out: Killing activity 48hr
[13] = juvenile worms, 50 μM, 72 h, read-out: Killing activity 72hr
[14] = 24 h, read-out: Killing activity 24hr
[15] = 48 h, read-out: Killing activity 48hr
[16] = 72 h, read-out: Killing activity 72hr

Compound	IC50 ([1]; read-out: IC50 of SjTGR) [µM]	mortality at 25 µM ([2]; 24 h) [%]	Killing activity 24hr ([2]; adult worms, 24 h) [%D]	Killing activity 48hr ([2]; adult worms, 48 h) [%D]	Killing activity 72hr ([2]; adult worms, 72 h) [%D]	killing at 2 µM [3, 5] [%]	killing at 2 µM [3, 6] [%]	killing at 2 µM [3, 7] [%]	killing at 5 µM [3, 8] [%]	killing at 5 µM [3, 9] [%]	killing at 5 µM [3, 10] [%]	killing at 50 µM [3, 11] [%]	killing at 50 µM [3, 12] [%]	killing at 50 µM [3, 13] [%]	Killing activity 48hr ([3]; juvenile worms, 48 h) [%D]	Killing activity 72hr ([3]; juvenile worms, 72 h) [%D]	Killing activity 24hr ([3]; juvenile worms, 24 h) [%D]	further results
N#Cc1c(-c2ccc(CBr)cc2)no[n+]1[O-] [Compound 22]	9.7	> 75	44.4	66.7	88.9	18.1	30.1	41	18.6	30.2	41.8	100	100	100	41.4	69.0	–	killing at 25 µM ([2]; adult worms, 25 μM, 24 h, read-out: Killing activity 24hr): 90%; killing at 25 µM ([2]; adult worms, 25 μM, 48 h, read-out: Killing activity 48hr): 100%; killing at 25 µM ([2]; adult worms, 25 μM, 72 h, read-out: Killing activity 72hr): 100%; killing at 50 µM ([2]; adult worms, 50 μM, 24 h, read-out: Killing activity 24hr): 90.9%; killing at 50 µM ([2]; adult worms, 50 μM, 48 h, read-out: Killing activity 48hr): 100%; killing at 50 µM ([2]; adult worms, 50 μM, 72 h, read-out: Killing activity 72hr): 100%; killing at 100 µM ([2]; adult worms, 100 μM, 24 h, read-out: Killing activity 24hr): 100%; killing at 100 µM ([2]; adult worms, 100 μM, 48 h, read-out: Killing activity 48hr): 100%; killing at 100 µM ([2]; adult worms, 100 μM, 72 h, read-out: Killing activity 72hr): 100%; mortality at 50 µM ([3]; 24 h): > 70%
CC(C)CCOc1ccc(-c2no[n+]([O-])c2C#N)cc1 [Compound 18]	> 20	> 75	16.7	16.7	50.0	–	–	–	–	–	–	–	–	–	42.7	42.7	36.6	IC50 of SjTGR [1]: did not inhibit SjTGR; killing at 25 µM [2, 14]: 75%; killing at 50 µM [2, 14]: 100%; killing at 100 µM [2, 14]: 100%; killing at 25 µM [2, 15]: 87.5%; killing at 50 µM [2, 15]: 100%; killing at 100 µM [2, 15]: 100%; killing at 25 µM [2, 16]: 100%; killing at 50 µM [2, 16]: 100%; killing at 100 µM [2, 16]: 100%; mortality at 25 µM ([2]; 72 h): 100%; killing at 2 µM [3, 14]: 24.1%; killing at 5 µM [3, 14]: 33.8%; killing at 50 µM [3, 14]: 52.4%; killing at 2 µM [3, 15]: 29.9%; killing at 5 µM [3, 15]: 40%; killing at 50 µM [3, 15]: 88.1%; killing at 2 µM [3, 16]: 35.6%; killing at 5 µM [3, 16]: 47.5%; killing at 50 µM [3, 16]: 100%
C[C@@H]1CC[C@H]2[C@@H](C)C(=O)O[C@@H]3O[C@@]4(C)CC[C@@H]1[C@]32OO4 [AS, artemisinin, reference compound]	–	–	–	–	–	16.2	24.3	32.4	34.1	36.4	40.9	51.3	66.7	76.9	66.7	71.4	47.6	IC50 ([1]; IC50 of SjTGR): > 20 µM; Number of eggs per gram of liver (Mean ± SD) ([4]; sacrificed day 42): 2,932.2 ± 1,149.3; Number of worms (Mean ± SD) ([4]; sacrificed day 42): 2.3 ± 1.0; Egg reduction rate ([4]; versus control): 63.5 (P < 0.01^*) %; Worm reduction rate ([4]; versus control, 10 mg/kg): 78.5 (P < 0.01^*) %; mortality at 50 µM ([3]; juvenile worms, 50 μM, 24 h): 51.3 ± 5.1%

From paper PMC4721062, “Oxadiazole-2-oxides may have other functional targets, in addition to SjTGR, through which they cause mortality in Schistosoma japonicum” (Parasites & Vectors, 2016)
